Converted amounts (≈) assume the structure as drawn. Where two headings read alike, the source gives them in different places.
Key:
M.avium 20092 = test: Antibacterial activity (minimum inhibitory concentration), agar dilution method, clarithromycin-resistant strain; type: cell-based, Mycobacterium avium; details: M. avium 20092 (clarithromycin-resistant), 7H11 agar, 37° C., 7 days; for MIC: Mycobacterium avium, 168 h
Method: (§1) In order to evaluate excellent efficacy of the compounds of the present invention, their antibacterial spectrums against a typical acid-fast mycobacteria were measured. Clarithromycin, rifampicin and 4″-O-acetylerythromycin A 9-(O-methyloxime) [a compound disclosed in the Japanese Patent Unexamined Publication (KOKAI) No.63-107921/1988] were used as reference compounds. Ac in the formula represents acetyl group. [drawing 1313]
(§2) Antibacterial Activity Against a Typical Acid-Fast Mycobacteria
(§3) Antibacterial activities (minimum inhibitory concentrations) against clinical isolates of a typical acid-fast mycobacteria were measured by the agar dilution method according to the standard method of the Japan Society of Chemotherapy. About 5 μl of bacterial suspension (adjusted to […]) were spotted on the 7H11 agar plates containing the test compounds. The minimum inhibitory concentrations were determined by the growth or no growth of the bacteria after incubation at 37° C. for 7 days. The abbreviation M in the table represents Mycobacterium. The compounds of the present invention had more excellent antibacterial activity than the reference compounds against a typical acid-fast mycobacteria including clarithromycin-resistant strains (M.avium 20092 and other bacteria).

[1] = system: clinical isolates of a typical acid-fast mycobacteria; test: microbe, parasite or virus in culture; type: cell-based, Mycobacterium; details: 7H11 agar, 37° C., 7 days; for MIC: 168 h
Method: as §1, §2, §3

[2] = Mycobacterium avium, read-out: Minimum inhibitory concentration, M. avium 20034
[3] = Mycobacterium avium, read-out: Minimum inhibitory concentration, M. avium 20045
[4] = Mycobacterium avium, read-out: Minimum inhibitory concentration, M. avium 20096
[5] = Mycobacterium intracellulare, read-out: Minimum inhibitory concentration, M. intracellulare 20066
[6] = Mycobacterium intracellulare, read-out: Minimum inhibitory concentration, M. intracellulare 20067
[7] = Mycobacterium intracellulare, read-out: Minimum inhibitory concentration, M. intracellulare 20073
[8] = Mycobacterium intracellulare, read-out: Minimum inhibitory concentration, M. intracellulare 20075

| Compound | Minimum inhibitory concentration (M.avium 20092) [µg/mL] | Minimum inhibitory concentration ([1]; M. avium 20034) [µg/mL] | Minimum inhibitory concentration ([1]; M. avium 20045) [µg/mL] | Minimum inhibitory concentration ([1]; M. avium 20096) [µg/mL] | Minimum inhibitory concentration ([1]; M. intracellulare 20066) [µg/mL] | Minimum inhibitory concentration ([1]; M. intracellulare 20067) [µg/mL] | Minimum inhibitory concentration ([1]; M. intracellulare 20073) [µg/mL] | Minimum inhibitory concentration ([1]; M. intracellulare 20075) [µg/mL] | melting point [°C] | MIC (M.avium 20092) [µg/mL] | MIC [1, 2] [µg/mL] | MIC [1, 3] [µg/mL] | MIC [1, 4] [µg/mL] | MIC [1, 5] [µg/mL] | MIC [1, 6] [µg/mL] | MIC [1, 7] [µg/mL] | MIC [1, 8] [µg/mL] |
| --- | --- | --- | --- | --- | --- | --- | --- | --- | --- | --- | --- | --- | --- | --- | --- | --- | --- |
| 4″-O-Acetyl-2′-O-benzylaminocarbonylerythromycin A 9-[O-(3-cyclo-hexylpropyl)oxime] [Example 40] | 0.78 | 0.39 | 0.78 | 0.78 | 0.20 | 0.78 | 0.78 | 0.78 |  |  |  |  |  |  |  |  |  |
| CC[C@H]1OC(=O)[C@H](C)[C@@H](O[C@H]2C[C@@](C)(OC)[C@@H](O)[C@H](C)O2)C[C@@H](O[C@@H]2O[C@H](C)C[C@H](N(C)C)[C@H]2OC(=O)NCc2ccccc2)C(C)(O)C[C@@H](C)C(=NOCCCOc2ccccc2)[C@H](C)[C@@H](O)[C@]1(C)O (some centres unmarked) [Example 34] |  |  |  |  |  |  |  |  | 107 to 110 |  |  |  |  |  |  |  |  |
| CCCCCCCCON=C1[C@H](C)CC(C)(O)[C@H](O[C@@H]2O[C@H](C)C[C@H](N(C)C)[C@H]2OC(=O)NCc2ccccc2)C[C@H](O[C@H]2C[C@@](C)(OC)[C@@H](OC(C)=O)[C@H](C)O2)[C@@H](C)C(=O)O[C@H](CC)[C@@](C)(O)[C@H](O)[C@H]1C (some centres unmarked) [Example 94] |  |  |  |  |  |  |  |  |  | 0.39 (≈ 0.381 µM) | 0.39 (≈ 0.381 µM) | 0.78 (≈ 0.763 µM) | 0.39 (≈ 0.381 µM) | 0.39 (≈ 0.381 µM) | 0.39 (≈ 0.381 µM) | 0.39 (≈ 0.381 µM) | 0.39 (≈ 0.381 µM) |
| CC[C@H]1OC(=O)[C@H](C)[C@@H](O[C@H]2C[C@@](C)(OC)[C@@H](O)[C@H](C)O2)[C@H](C)[C@@H](O[C@@H]2O[C@H](C)C[C@H](N(C)C)[C@H]2O)[C@](C)(OC)C[C@@H](C)C(=O)[C@H](C)[C@@H](O)[C@]1(C)O [compound 1, Clarithromycin] |  |  |  |  |  |  |  |  |  | > 50 | 3.13 (≈ 4.18 µM) | 1.56 (≈ 2.09 µM) | > 50 | 3.13 (≈ 4.18 µM) | 1.56 (≈ 2.09 µM) | 1.56 (≈ 2.09 µM) | 3.13 (≈ 4.18 µM) |
| CO[C@H]1/C=C/O[C@@]2(C)Oc3c(C)c(O)c4c(O)c(c(/C=N/N5CCN(C)CC5)c(O)c4c3C2=O)NC(=O)/C(C)=C\C=C\[C@H](C)[C@H](O)[C@@H](C)[C@@H](O)[C@@H](C)[C@H](OC(C)=O)[C@@H]1C [compound 2, rifampicin] |  |  |  |  |  |  |  |  |  | 50 (≈ 60.8 µM) | 12.5 (≈ 15.2 µM) | 3.13 (≈ 3.8 µM) | 3.13 (≈ 3.8 µM) | 3.13 (≈ 3.8 µM) | 1.56 (≈ 1.9 µM) | 3.13 (≈ 3.8 µM) | 3.13 (≈ 3.8 µM) |
| CC[C@H]1OC(=O)[C@H](C)[C@@H](O[C@H]2C[C@@](C)(OC)[C@@H](OC(C)=O)[C@H](C)O2)[C@H](C)[C@@H](O[C@@H]2O[C@H](C)C[C@H](N(C)C)[C@H]2O)[C@](C)(O)C[C@@H](C)C(=NOC)[C@H](C)[C@@H](O)[C@]1(C)O [compound 3, 4″-O-acetylerythromycin A 9-(O-methyloxime)] | >50 | >50 | 12.5 (≈ 15.5 µM) | >50 | 12.5 (≈ 15.5 µM) | 6.25 (≈ 7.76 µM) | 12.5 (≈ 15.5 µM) | 12.5 (≈ 15.5 µM) |  |  |  |  |  |  |  |  |  |
